Data from patent US6103707A, “9-(2-deoxy-2-fluoro-4-thio-beta-D-arabinofuranosyl)purine derivatives” (Yamasa Corporation, priority 1996, dated 2000).
≈ marks a conversion by molar mass, not a printed value. Like-named read-outs stand apart in the source and are kept apart here.

Tests used:
HSV-2 = experiment: Anti-HSV-2 activity (plaque-formation inhibition in human embryonic lung fibroblasts); format: cell-based, herpes simplex virus 2 (HSV-2), MS strain; conditions: Human alphaherpesvirus 2, Fibroblast, read-out: Antiviral Activity (ED50) HSV-2
Protocol: (§1) (1) Anti-HSV-1 Activity and Anti-HSV-2 Activity
(§2) 1. Fibroblasts derived from human embryonic lung tissue are subcultured in an Eagle's MEM supplemented with 10% of pseudo fetal calf serum (Mitsubishi Chemical Corp.), by passing at 1: (2-4) split every 4 or 5 days.
(§3) 2. A cell suspension obtained from the parent cells by passing at 1:2 split is seeded on a 12-well multiplate at a rate of 2 ml/well, and incubated in a CO2 -incubator at 37° C. for 4 days.
(§4) 3. The culture medium is discarded; a Hanks' MEM (250 microlitters) containing 50 to 150 PFU of the VR-3 strain of HSV-1 or the MS strain of HSV-2 is inoculated, thereby allowing the cells to adsorb the virus at 37° C. for 30 minutes; and then the virus liquid is discarded.
(§5) 4. A serum (2.5%)-added Eagle's MEM containing a test agent and 0.8% of methyl cellulose is added; and the resultant is incubated in a CO2 -incubator at 37° C. for 2 to 3 days. In general, the test agent is diluted serially by 1/2 log 10.
(§6) 5. The culture medium is discarded, and the resultant is dyed with a 0.5% solution of crystal violet; the number of plaques in each well is counted under a stereoscopic light microscope; and the rate of plaque-formation inhibition is obtained from the equation below.
(§7) 6. The rates of plaque-formation inhibition are plotted against the concentrations (in logarithm) of the test agent, and, from this dose--plaque-formation inhibition curve, 50% inhibitory concentration (ED50) of the test agent is obtained. [formula] (2) Anti-Varicella Zoster Virus (VZV) Activity

HSV-1 = experiment: Anti-HSV-1 activity (plaque-formation inhibition in human embryonic lung fibroblasts); format: cell-based, herpes simplex virus 1 (HSV-1), VR-3 strain; conditions: Human alphaherpesvirus 1, Fibroblast, read-out: Antiviral Activity (ED50) HSV-1
Protocol: as §1, §2, §3, §4, §5, §6, §7

VZV = experiment: microbe, parasite or virus in culture; format: cell-based, varicella-zoster virus (VZV), Oka strain; conditions: Human alphaherpesvirus 3, Fibroblast, read-out: Antiviral Activity (ED50) VZV
From the text: as §7, §2, §3
3. The culture medium is discarded; and 750 microlitters of a serum (5%)-added Eagle's MEM containing 50 to 100 PFU of the Oka strain of VZV is inoculated, thereby allowing the cells to adsorb the virus at 37° C. for 1 hour.
4. The same amount of an MEM containing a test agent is added without discarding the virus liquid, and the resultant is incubated in a CO2 -incubator at 37° C. In general, the test agent is diluted serially by 1/2 log 10.
(§8) 5. After 4-5 day incubation, the culture medium is discarded, and the resultant is dyed with a 0.5% solution of crystal violet; the number of plaques in each well is counted under a stereoscopic light microscope; and the rate of plaque-formation inhibition is obtained from the same equation as is used in the above (1).
6. The rates of plaque-formation inhibition are plotted against the concentrations (in logarithm) of the test agent, and, from this dose--plaque-formation inhibition curve, 50% inhibitory concentration (ED50) of the test agent is obtained.

HCMV = experiment: Anti-Human Cytomegalovirus (HCMV) activity (plaque-formation inhibition in human embryonic lung fibroblasts); format: cell-based; conditions: Human betaherpesvirus 5, AD169, Fibroblast, HCMV AD-169 strain, 4 days plus further 4 to 5 days, 50% plaque-formation inhibition, read-out: Antiviral Activity (ED50) HCMV
Protocol: (3) Anti-Human Cytomegalovirus (HCMV) Activity
as §2
2. A cell suspension obtained from the parent cells by passing at 1:2 split is seeded on a 24-well multiplate at a rate of 0.8 ml/well, and incubated in a CO2 -incubator at 37° C. for 4 days.
3. The culture medium is discarded; and 400 microlitters of a serum (5%)-added Eagle's MEM containing 50 to 100 PFU of the AD-169 strain of HCMV is inoculated, thereby allowing the cells to adsorb the virus at 37° C. for 1 hour.
4. The same amount of an MEM containing a test agent is added without discarding the virus liquid, and the resultant is incubated in a CO2 -incubator at 37° C. for 4 days. In general, the test agent is diluted serially by 1/2 log 10.
5. The culture medium is replaced with a serum (2.5%)-added Eagle's MEM containing the test agent with the same concentration and 0.8% of methyl cellulose, and incubation is continued for a further 4 to 5 days.
as §8, with “6. The” for “5. After 4-5 day incubation, the”, “May-Gruenwald's and Giemsa (×10) solutions;” for “a 0.5% solution of crystal violet;”
7. The rates of plaque-formation inhibition are plotted against the concentrations (in logarithm) of the test agent, and, from this dose--plaque-formation inhibition curve, 50% inhibitory concentration (ED50) of the test agent is obtained.

[1] = HSV-2 MS strain, human embryonic lung fibroblasts, 2 to 3 days, 50% plaque-formation inhibition
[2] = HSV-1 VR-3 strain, human embryonic lung fibroblasts, 2 to 3 days, 50% plaque-formation inhibition

## Nc1ncnc2c1ncn2[C@@H]1O[C@H](CO)[C@@H](O)[C@@H]1O [Control Example 1, araA, reference compound]
HSV-2
  EC50: 6.6 µg/mL (≈ 24.7 µM)
HSV-1
  EC50: 17.1 µg/mL (≈ 64 µM)
VZV
  EC50: 1.17 µg/mL (≈ 4.38 µM)
HCMV
  EC50: 6.5 µg/mL

## Nc1nc2c(ncn2COCCO)c(=O)[nH]1 [Control Example 2, acyclovir, reference compound]
HSV-2; [1]
  EC50: 0.23 µg/mL (≈ 1.02 µM)
HSV-1; [2]
  EC50: 0.14 µg/mL (≈ 0.622 µM)
HCMV
  EC50: 6.9 µg/mL

## Nc1nc(O)c2ncn(COC(CO)CO)c2n1 [Control Example 3, ganciclovir, reference compound]
HSV-2; [1]
  EC50: 0.039 µg/mL (≈ 0.153 µM)
HSV-1; [2]
  EC50: 0.016 µg/mL (≈ 0.0627 µM)
VZV
  EC50: 3.1 µg/mL (≈ 12.1 µM)
HCMV
  EC50: 0.21 µg/mL

## Nc1ncnc2c1ncn2[C@@H]1S[C@H](CO)[C@@H](O)[C@@H]1F [Synthesis Example 1, 9-(2-deoxy-2-fluoro-4-thio-beta-D-arabinofuranosyl)adenine]
HSV-2; [1]
  EC50: 3.07 µg/mL (≈ 10.8 µM)
HSV-1; [2]
  EC50: 1.61 µg/mL (≈ 5.64 µM)
VZV
  EC50: 3.04 µg/mL (≈ 10.7 µM)
HCMV
  EC50: 1.41 µg/mL

## Nc1nc(N)c2ncn([C@@H]3S[C@H](CO)[C@@H](O)[C@@H]3F)c2n1 [Synthesis Example 2, 9-(2-deoxy-2-fluoro-4-thio-beta-D-arabinofuranosyl)-2,6-diaminopurine]
HSV-2; [1]
  EC50: 0.05 µg/mL (≈ 0.166 µM)
HSV-1; [2]
  EC50: 0.0057 µg/mL (≈ 0.019 µM)
VZV
  EC50: 0.101 µg/mL (≈ 0.336 µM)
HCMV
  EC50: 0.066 µg/mL

## Nc1nc2c(ncn2[C@@H]2S[C@H](CO)[C@@H](O)[C@@H]2F)c(=O)[nH]1 [Synthesis Example 3, 9-(2-deoxy-2-fluoro-4-thio-beta-D-arabinofuranosyl)guanine]
HSV-2; [1]
  EC50: 0.063 µg/mL (≈ 0.209 µM)
HSV-1; [2]
  EC50: 0.0091 µg/mL (≈ 0.0302 µM)
VZV
  EC50: 0.095 µg/mL (≈ 0.315 µM)
HCMV
  EC50: 0.078 µg/mL
